The values below come from patent US5789416A, “N^6 mono heterocyclic substituted adenosine derivatives” (CV Therapeutics, priority 1996, dated 1998).

What is called EC50 is the midpoint of the concentration-response curve. A higher EC50 goes with a need for much substance.

What all share (assay type): cell-based
Assay [1] has as its system adenosine A1 receptor. In words: A1 receptor mediated inhibition of isoproterenol stimulated cAMP accumulation in DDT cells. The settings on record: for A1 /A2: ratio of EC50 in DDT cells (A1) to EC50 in PC12 cells (A2). The source says: (§1) The first was the A1 receptor mediated inhibition of isoproterenol stimulated cAMP accumulation in DDT cells. The EC50 of each derivative is shown in Table I. Also shown in Table I is the ability of each derivative to stimulate cAMP production in PC12 cells, a function of agonist stimulation of adenosine A2 receptors. The ratio of the relative potency of each compound in stimulating either an A1 receptor or an A2 receptor effect is termed the selectivity of each compound for the A1 receptor.
In general terms: Changes in cAMP serve as a functional read-out for many G protein-coupled receptors.

The target in assay [2] is T1, adenosine A1 receptor (Mesocricetus auratus, UniProt A0A1U8BVR4).
T1 construct: endogenous in cells
T1 sequence (A0A1U8BVR4 1-326): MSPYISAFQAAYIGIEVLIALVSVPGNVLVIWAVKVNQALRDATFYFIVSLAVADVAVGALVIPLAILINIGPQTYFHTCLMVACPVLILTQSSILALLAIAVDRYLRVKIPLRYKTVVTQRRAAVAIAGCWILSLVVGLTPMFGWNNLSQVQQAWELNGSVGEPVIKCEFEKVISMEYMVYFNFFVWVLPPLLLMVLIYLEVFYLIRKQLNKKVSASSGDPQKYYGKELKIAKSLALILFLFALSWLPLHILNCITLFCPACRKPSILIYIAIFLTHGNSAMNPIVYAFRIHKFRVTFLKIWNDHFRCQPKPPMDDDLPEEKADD
The description is as above. Particulars: DDT cells; inhibition of isoproterenol stimulated cAMP accumulation (A1 agonism).
From the text: as §1

For another assay, the target named is T2, adenosine A2 receptors (Rattus norvegicus, UniProt P30543).
T2 construct: stimulate cAMP production in PC12 cells, a function of agonist stimulation of adenosine A2 receptors; endogenous in cells; host or cells: PC12 cells
In words: stimulation of cAMP production in PC12 cells (adenosine A2 receptor agonist function). The settings on record: stimulation of cAMP production (A2 agonism). The procedure: Compounds of this invention prepared according to the method of Example 1 were tested in two functional models specific for adenosine A1 receptor agonist function. The first was the A1 receptor mediated inhibition of isoproterenol stimulated cAMP accumulation in DDT cells. The EC50 of each derivative is shown in Table I. Also shown in Table I is the ability of each derivative to stimulate cAMP production in PC12 cells, a function of agonist stimulation of adenosine A2 receptors. The ratio of the relative potency of each compound in stimulating either an A1 receptor or an A2 receptor effect is termed the selectivity of each compound for the A1 receptor. […] The use of measuring cAMP metabolism as an assay for adenosine A1 receptor function has been previously described (Scammells, P., Baker, S., Belardinelli, L., and Olsson, R., 1994, Substituted 1,3-dipropylxanthines as irreversible antagonists of A1 adenosine receptors. J. Med. Chem 37: […], 1994).

Where [3] appears, read: ratio of EC50 in PC12 cells (A2) to EC50 in DDT cells (A1), A1 selectivity.

Structures are written as SMILES. Read-outs that look alike come from different tables or passages of the source.

T2 sequence (P30543 whole entry): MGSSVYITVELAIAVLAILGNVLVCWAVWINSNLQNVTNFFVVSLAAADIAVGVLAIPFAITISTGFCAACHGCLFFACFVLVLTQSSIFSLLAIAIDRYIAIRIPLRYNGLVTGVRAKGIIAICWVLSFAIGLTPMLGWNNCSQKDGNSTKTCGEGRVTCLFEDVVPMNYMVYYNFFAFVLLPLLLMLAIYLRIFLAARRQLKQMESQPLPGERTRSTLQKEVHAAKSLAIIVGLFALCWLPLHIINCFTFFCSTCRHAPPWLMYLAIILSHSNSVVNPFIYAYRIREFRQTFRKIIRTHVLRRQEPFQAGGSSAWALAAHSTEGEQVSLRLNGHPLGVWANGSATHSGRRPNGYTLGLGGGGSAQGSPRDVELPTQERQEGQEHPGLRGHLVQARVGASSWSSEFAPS

Turning to `OC[C@H]1O[C@@H](n2cnc3c(NC4CCOCC4)ncnc32)[C@H](O)[C@@H]1O` [I, 6-(4-aminopyran)-purine Riboside], in the assay with adenosine A1 receptor [1], the “A2 /A1” value stood at 80.0. Besides, the “A1 /A2” value in the assay with adenosine A1 receptor [1] was found to be 0.012. Also, the EC50 on adenosine A1 receptor [2] is 12 nM; on adenosine A2 receptors, 970 nM.
On to `O=C1NCCCC[C@@H]1Nc1ncnc2c1ncn2[C@@H]1O[C@H](CO)[C@@H](O)[C@H]1O` [IV], for which the “A1 /A2” value in the assay with adenosine A1 receptor [1] stood at 0.889. The “A2 /A1” value with adenosine A1 receptor [1] (setting [3]) came out at 1.12. The EC50 is 161 nM at adenosine A1 receptor [2] and 181 nM at adenosine A2 receptors.
As for `OC[C@H]1O[C@@H](n2cnc3c(NC4CCOC4)ncnc32)[C@H](O)[C@@H]1O` (some centres unmarked) [II, 6-(3-aminotetrahydrofuranyl)purine Riboside], the “A1 /A2” value in the assay with adenosine A1 receptor [1] is on record as 0.0093. Besides, the “A2 /A1” value in the assay on adenosine A1 receptor [1] (setting [3]) is 107.6. Moreover, the EC50 stood at 13 nM at adenosine A1 receptor [2] and 1400 nM on adenosine A2 receptors.
On to `OC[C@H]1O[C@@H](n2cnc3c(N[C@H]4CCOC4)ncnc32)[C@H](O)[C@@H]1O` [V, 6-(3-(S)-aminotetrahydrofuranyl)purine Riboside], for which the “A1 /A2” value in the assay with adenosine A1 receptor [1] is 0.00044. In addition, in the assay on adenosine A1 receptor [1] (setting [3]), the “A2 /A1” value worked out at 2258. Moreover, the EC50 came out at 3.4 nM on adenosine A1 receptor [2] and 7680 nM on adenosine A2 receptors.
On the same counts, the results for `OC[C@H]1O[C@@H](n2cnc3c(N[C@@H]4CCOC4)ncnc32)[C@H](O)[C@@H]1O` [III] are 0.0024, 414, 1.08 nM and 448 nM.
